One block for each molecule: values may come before it.
Experiments:
SCTR (secretin receptor) = SCTR (secretin receptor) (Homo sapiens, UniProt P47872); assay: cAMP accumulation assay, agonist mode; format: cell-based; settings: CHO-K1, read-out: Emax in cAMP accumulation assays
SCTR-SmBiT = SCTR-SmBiT (UniProt P47872 23-440); assay: cell-based or functional assay
SCTR-SmBiT, sequence (P47872 23-440): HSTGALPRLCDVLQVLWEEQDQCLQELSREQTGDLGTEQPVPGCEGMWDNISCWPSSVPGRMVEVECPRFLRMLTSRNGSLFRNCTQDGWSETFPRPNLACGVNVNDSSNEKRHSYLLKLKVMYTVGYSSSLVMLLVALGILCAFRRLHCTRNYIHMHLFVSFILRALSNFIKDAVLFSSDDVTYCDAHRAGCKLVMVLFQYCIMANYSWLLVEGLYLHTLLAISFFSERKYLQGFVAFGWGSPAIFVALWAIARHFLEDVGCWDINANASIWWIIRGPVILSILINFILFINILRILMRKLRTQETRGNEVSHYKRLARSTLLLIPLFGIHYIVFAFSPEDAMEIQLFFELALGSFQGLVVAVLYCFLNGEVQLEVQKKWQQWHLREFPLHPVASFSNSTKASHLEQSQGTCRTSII

SCTR (secretin receptor), sequence (P47872 23-440): as above

Emax (SCTR (secretin receptor)): 30%
Molecule: CC(C)C[C@H](NC(=O)CNC(=O)[C@H](CCC(N)=O)NC(=O)[C@H](CC(C)C)NC(=O)[C@H](CC(C)C)NC(=O)[C@H](CCCNC(=N)N)NC(=O)[C@H](CCC(N)=O)NC(=O)[C@H](CC(C)C)NC(=O)[C@H](CCCNC(=N)N)NC(=O)[C@H](C)NC(=O)CNC(=O)[C@H](CCC(=O)O)NC(=O)[C@H](CCCNC(=N)N)NC(=O)[C@H](CC(C)C)NC(=O)[C@H](CCCNC(=N)N)NC(=O)[C@H](CO)NC(=O)[C@H](CC(C)C)NC(=O)[C@H](CCC(=O)O)NC(=O)[C@H](CO)NC(=O)[C@@H](NC(=O)[C@H](Cc1ccccc1)NC(=O)[C@@H](NC(=O)CNC(=O)[C@@H](N)CC(=O)O)[C@@H](C)O)[C@@H](C)O)C(=O)N[C@H](C(N)=O)C(C)C [Sec(3–27)]

β-arrestin-2 recruitment (NanoBiT, SCTR-SmBiT with LgBiT-ARRB2), EC50 (SCTR-SmBiT): 1.3 µM
B1: Sec(1–23) (peptide)
peptide: HSDGTFTSELSRLREGARLQRLL

— paper PMC8278649 (SLAS discovery : advancing life sciences R & D, 2020)
